According to ChEMBL document CHEMBL1137327, “Optimization of chromone-2-carboxamide melanin concentrating hormone receptor 1 antagonists: assessment of potency, efficacy, and cardiovascular safety” (J Med Chem, 2006):
Calls of active or inactive are those of the source. No cut-off for these calls is given here.

Columns and labels:
[1] = target: T1, Melanin-concentrating hormone receptor 1 (Homo sapiens, UniProt Q99705); assay: Antagonist activity at MCHr1 assessed as inhibition of MCH-mediated calcium ion release in intact IMR32 cells by FLIPR assay; format: functional, cell-based, IMR-32
T1 sequence (Q99705 whole entry): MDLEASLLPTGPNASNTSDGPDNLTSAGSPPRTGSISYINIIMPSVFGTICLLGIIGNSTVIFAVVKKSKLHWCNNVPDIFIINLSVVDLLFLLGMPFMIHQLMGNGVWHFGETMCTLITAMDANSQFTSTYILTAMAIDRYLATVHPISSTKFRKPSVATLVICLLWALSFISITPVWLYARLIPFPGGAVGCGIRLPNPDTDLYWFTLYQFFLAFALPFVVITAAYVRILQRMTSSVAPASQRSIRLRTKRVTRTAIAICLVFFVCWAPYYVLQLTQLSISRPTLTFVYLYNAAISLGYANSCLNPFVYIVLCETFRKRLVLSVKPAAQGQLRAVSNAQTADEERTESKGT

[2] = target: T1, Melanin-concentrating hormone receptor 1; assay: Displacement of [125I]MCH from MCHr1 expressed in IMR32 cells; format: cell-based, IMR-32
[3] = Half life in C57BL/6J DIO mouse plasma at 10 mg/kg, po; format: ADME, organism-based; set-up: dose 10 mg/kg, route oral
[4] = test system: Mus musculus; assay: Decrease in food intake of C57BL/6J DIO mouse at 10 mg/kg, po relative to control; format: functional; set-up: scale not given: the % may be the effect or the level left
[5] = Drug level in C57BL/6J DIO mouse brain at 30 mg/kg, po after 14 days; format: ADME, organism-based; set-up: dose 30 mg/kg, route oral; conditions: read-out: Drug uptake
[6] = test system: Mus musculus; assay: Decrease in body weight of C57BL/6J DIO mouse at 10 mg/kg, po after 14 days relative to control; format: functional; set-up: scale not given: the % may be the effect or the level left
[7] = test system: Mus musculus; assay: Decrease in body weight of C57BL/6J DIO mouse at 30 mg/kg, po after 14 days relative to control; format: functional; set-up: scale not given: the % may be the effect or the level left
[8] = test system: Mus musculus; assay: Decrease in body weight of C57BL/6J DIO mouse at 1 mg/kg, po relative to control; format: functional, organism-based; set-up: dose 1 mg/kg
[9] = test system: Rattus norvegicus; assay: Drug level in anesthetized Sprague-Dawley rat plasma; format: ADME, organism-based; conditions: in vivo
[10] = Cmax in C57BL/6J DIO mouse plasma at 10 mg/kg, po; format: ADME, organism-based; set-up: dose 10 mg/kg, route oral; conditions: read-out: Cmax
[11] = Drug level in C57BL/6J DIO mouse plasma at 30 mg/kg, po after 14 days; format: ADME, organism-based; set-up: dose 30 mg/kg, route oral
[12] = Half life in C57BL/6J DIO mouse brain at 10 mg/kg, po; format: ADME, organism-based; set-up: dose 10 mg/kg, route oral
[13] = Ratio of AUC in brain to plasma of C57BL/6J DIO mouse at 10 mg/kg, po; format: ADME, organism-based; set-up: dose 10 mg/kg, route oral; conditions: brain and plasma, read-out: Ratio AUC
[14] = Drug level in C57BL/6J DIO mouse brain at 10 mg/kg, po after 14 days; format: ADME, organism-based; set-up: dose 10 mg/kg, route oral; conditions: read-out: Drug uptake
[15] = Drug level in C57BL/6J DIO mouse plasma at 10 mg/kg, po after 14 days; format: ADME, organism-based; set-up: dose 10 mg/kg, route oral
[16] = test system: Rattus norvegicus; assay: Drug level in anesthetized Sprague-Dawley rat brain; format: ADME, organism-based; conditions: in vivo
[17] = test system: Mus musculus; assay: Decrease in food intake of C57BL/6J DIO mouse at 30 mg/kg, po relative to control; format: functional; set-up: scale not given: the % may be the effect or the level left
[18] = Cmax in C57BL/6J DIO mouse brain at 10 mg/kg, po; format: ADME, organism-based; set-up: dose 10 mg/kg, route oral
[19] = test system: Mus musculus; assay: AUC in C57BL/6J DIO mouse brain at 10 mg/kg, po; format: ADME, organism-based; set-up: dose 10 mg/kg, route oral; conditions: in vivo
[20] = test system: Mus musculus; assay: Decrease in body weight of C57BL/6J DIO mouse at 3 mg/kg, po relative to control; format: functional, organism-based; set-up: dose 3 mg/kg
[21] = test system: Rattus norvegicus; assay: Decrease in mean arterial pressure in anesthetized Sprague-Dawley rat at 60 mg/kg; format: functional, Artery; set-up: scale not given: the % may be the effect or the level left
[22] = test system: Rattus norvegicus; assay: Decrease in heart rate in anesthetized Sprague-Dawley rat at 60 mg/kg; format: functional; set-up: scale not given: the % may be the effect or the level left

Compound | IC50 [1] | IC50 [2] | also measured
O=C(NC1CCN(Cc2ccc3c(c2)OCO3)CC1)c1cc(=O)c2cc(Cl)ccc2o1 | 2.05 µM | 0.734 µM | –
O=C(NC1CCN(Cc2cc3c(cc2Cl)OCO3)CC1)c1cc(=O)c2ccc(F)cc2o1 | 0.266 µM | 0.022 µM | –
COc1cccc(CN2CCC(NC(=O)c3cc(=O)c4ccc(F)cc4o3)CC2)c1 | 0.39 µM | 0.031 µM | –
O=C(NC1CCN(Cc2ccc3c(c2)OCO3)CC1)c1cc(=O)c2ccc(OC(F)F)cc2o1 | 0.16 µM | 0.064 µM | –
O=C(NC1CCN(Cc2ccc3c(c2)OCO3)CC1)c1cc(=O)c2cc(C(F)(F)F)ccc2o1 | – | 0.351 µM | –
O=C(NC1CCN(Cc2ccc3c(c2)OCO3)CC1)c1cc(=O)c2ccccc2o1 | 0.192 µM | 0.066 µM | –
O=C(NC1CCN(Cc2cccc3c2OCO3)CC1)c1cc(=O)c2ccc(F)cc2o1 | – | > 0.7 µM | –
O=C(NC1CCN(Cc2ccc3c(c2)OCO3)CC1)c1cc(=O)c2c(Cl)cccc2o1 | > 10 µM | 0.024 µM | –
O=C(NC1CCN(Cc2ccc3c(c2)OCCO3)CC1)c1cc(=O)c2ccc(F)cc2o1 | 0.171 µM | 0.073 µM | –
O=C(NC1CCN(Cc2ccc3c(c2)OCO3)CC1)c1cc(=O)c2cc(OC(F)(F)F)ccc2o1 | > 9 µM | 0.132 µM | –
O=C(NC1CCN(Cc2ccc3c(c2)OCO3)CC1)c1cc(=O)c2cc(Br)ccc2o1 | > 6 µM | 0.187 µM | –
O=C(NC1CCN(Cc2ccc3c(c2)OCO3)CC1)c1cc(=O)c2cc(F)ccc2o1 | 0.196 µM | 0.065 µM | –

Second part, led by results:

IC50 [1] | IC50 [2] | Compound | also measured
– | > 2 µM | COc1ccc2c(=O)cc(C(=O)NC3CCCN(Cc4ccc5c(c4)OCO5)C3)oc2c1 (configuration not stated) | –
– | 0.393 µM | Cc1ccc2oc(C(=O)NC3CCN(Cc4ccc5c(c4)OCO5)CC3)cc(=O)c2c1 | –
0.073 µM | 0.011 µM | COc1ccc2c(=O)cc(C(=O)NC3CCN(Cc4ccc5c(c4)OCO5)CC3)oc2c1 | half-life [3]: 3.1 h; Activity [4]: 16%; concentration at 336 h [5]: 27100 ng/g; Activity [6]: 7.3%; Activity [7]: 15.9%; Activity [8]: inactive; Cp [9]: 29 µg/mL; Cmax [10]: 3.6 µg/mL; concentration at 336 h [11]: 32.9 µg/mL; half-life [12]: 4.9 h; Kp [13]: 0.24; concentration at 336 h [14]: 4900 ng/g; concentration at 336 h [15]: 10.1 µg/mL; Drug uptake [16]: 158 µg/g; Activity [17]: 37%; Cmax [18]: 548 ng/g; AUC [19]: 4398 ng·h/g; Activity [20]: inactive
– | > 2 µM | COc1ccc2c(=O)cc(C(=O)NCCC3CCCN3Cc3ccc4c(c3)OCO4)oc2c1 (configuration not stated) | –
0.137 µM | 0.047 µM | N#Cc1ccc2c(=O)cc(C(=O)NC3CCN(Cc4ccc5c(c4)OCO5)CC3)oc2c1 | –
8.3 µM | 1.14 µM | COc1ccc2c(=O)cc(C(=O)NCC3CCN(Cc4ccc5c(c4)OCO5)C3)oc2c1 (configuration not stated) | –
0.411 µM | 0.053 µM | COc1ccc(CN2CCC(NC(=O)c3cc(=O)c4ccc(F)cc4o3)CC2)c(F)c1 | –
0.071 µM | 0.003 µM | O=C(NC1CCN(Cc2ccc3c(c2)OCO3)CC1)c1cc(=O)c2cc(F)c(Cl)cc2o1 | –
0.581 µM | 0.039 µM | CC(=O)c1ccc(CN2CCC(NC(=O)c3cc(=O)c4ccc(F)cc4o3)CC2)cc1 | –
– | 0.427 µM | COc1ccc(CN2CCC(NC(=O)c3cc(=O)c4ccc(F)cc4o3)CC2)cc1OC | –
0.016 µM | 0.002 µM | COc1cc2oc(C(=O)NC3CCN(Cc4ccc5c(c4)OCO5)CC3)cc(=O)c2cc1F | Activity [21]: 15.3%; Cp [9]: 105 µg/mL; Activity [22]: <15%; Drug uptake [16]: 149 µg/g
